According to the METLIN SMRT retention time set (Domingo-Almenara et al. 2019):

Experiment: gradient 5% acetonitrile 3 min, to 50% in 2 min, to 85% in 15 min, held 3 min, 100 µL/min
Details: column: Zorbax Extend-C18 2.1 x 50 mm; eluents: water / acetonitrile, 0.1% formic acid
Procedure, shortened: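 Mixtures of ~100 pure standards were chromatographed on a Zorbax Extend-C18 column (2.1 × 50 mm, 1.8 μm) at 100 μL/min using water and acetonitrile, each with 0.1% formic acid. Detection used a quadrupole time-of-flight mass spectrometer in positive and negative ionization mode, and data collection spanned 3 months. Retention time was obtained from adduct peaks picked computationally and each checked manually.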

SMILES | RP-LC retention time
COc1cccc2sc(N(C)CC(=O)N3CCn4c3nc3ccccc34)nc12 | 758 s
C#CCOCC1CCN(C(=O)c2cc(-c3cccs3)[nH]n2)CC1 | 734 s
CC(C)(C)c1cc(C(=O)Nc2ccc(C#N)cc2)nc2ccnn12 | 1200 s
Cc1ccc(N2C(=O)C3N=NN(Cc4nc(-c5ccc6c(c5)OCO6)no4)C3C2=O)cc1 (stereo not given) | 957 s
COc1ccc(OC)c(NC(=O)N2CCN(c3cc(C)nc(N4CCOCC4)n3)CC2)c1 | 627 s
CC(=O)Oc1ccc(C2=NN(C(C)=O)C(c3ccc(F)cc3)O2)c(OC(C)=O)c1 (stereo not given) | 936 s
COc1ccc(C2(C(=O)Nc3ccc4c(c3)Sc3ncccc3C(=O)N4C)CC2)cc1 | 902 s
CCCn1c(=O)c(C)nc2cc(-c3noc(-c4sccc4C)n3)ccc21 | 1240 s
C(=C\c1ccc(/C=C/c2ccccc2)nn1)/c1ccccc1 | 1140 s
Cc1ccc(N2CC(c3nc(-c4ccc5c(c4)OCO5)no3)CC2=O)cc1F (stereo not given) | 986 s
CN1C(=O)c2cccn2CC1C(=O)N1CCc2ccccc21 (stereo not given) | 703 s
CCOc1ccc(S(=O)(=O)N2CCc3c(c(-c4nnc(-c5ccc(F)cc5)o4)nn3C)C2)cc1 | 1000 s
CC(=O)n1nc(-c2ccccc2Cl)nc1N | 729 s
COc1cccc(-c2cc(C(=O)N3CCN(c4ccc(N5CCOCC5)nn4)CC3)[nH]n2)c1 | 610 s
CCN(CC)c1nc2cc(C(=O)OC)ccc2c(=O)n1-c1ccc2c(c1)OCO2 | 1080 s
Cc1ccc(NC(=O)N2CCN(c3cnn4c(C)nnc4c3)CC2)cc1Cl | 674 s
c1ccc(OCc2nc(-c3cccc(-c4csc(C5CC5)n4)c3)no2)cc1 | 1330 s
O=c1c2scc(-c3cccc(F)c3)c2ncn1Cc1cc(=O)n2ccccc2n1 | 809 s
CCOc1ccccc1NC(=O)NCC(c1cccnc1)c1cn(C)c2ccccc12 (stereo not given) | 753 s
O=C(c1ccco1)N1CCC(n2c(-c3ccoc3)nc3cccnc32)C1 (stereo not given) | 650 s
CCn1nc(C)cc1C(=O)N(Cc1ccccn1)c1nc2c(OC)ccc(OC)c2s1 | 883 s
O=C(Nc1cnc(N2CCCCCC2)nc1)c1ccc(F)cc1F | 954 s
Cc1nc(-c2cccnc2)nc2c1CCC(=O)N2Cc1ccccn1 | 566 s
Cc1ccc(S(=O)(=O)N2CCSCCSCCSCCSCC2)cc1 | 1160 s
CCOC(=O)/C(C#N)=C\c1c[nH]c2ccccc12 | 649 s
Cn1nc(C(=O)N2CCC3(CC2)N=C(c2ccccc2)NO3)c2ccccc21 | 809 s

SMILES | RP-LC retention time
Cc1cc(-c2ccc(NC(=O)c3cccs3)c(C)c2)ccc1NC(=O)c1ccsc1 | 878 s
COc1ccc(Nc2nc(-c3ccc(OC)cc3)c(CCC(=O)O)s2)cc1 | 756 s
COc1cccc(-c2noc(-c3nc(-c4ccc5c(c4)OCO5)no3)n2)c1OC | 1150 s
COc1cccc(C2Cn3nnc(-c4nc(-c5ccccc5OC)no4)c3CO2)c1 (stereo not given) | 1010 s
CCc1nc2cc(-c3noc(-c4cccnc4)n3)ccc2o1 | 912 s
O=C(Cn1nc2nc(N3CCCCCC3)ccn2c1=O)Nc1cc(F)cc(F)c1 | 798 s
CCC(C)(C)NC(=O)C1CCN(S(=O)(=O)c2c(C)[nH]c(C)c2C(=O)N2CCCCC2)CC1 | 746 s
COc1ccc(-c2nnc(SCC(=O)Nc3nccs3)o2)cc1 | 720 s
COc1ccc(NC(=O)CCC2CCN(c3cc(NC4CC4)ncn3)CC2)c(OC)c1 | 688 s
CCN(C(=O)Cc1ccc(OC)cc1)c1nc(-c2ccccc2)cs1 | 1260 s
CC[C@@H](C)[C@@H](O)[C@H](C)C(=O)[C@H](C)/C=C(\C)C[C@H](C)[C@@H]1OC(=O)[C@H]1CC | 1250 s
COc1ccc(Nc2c(-c3ccc(N(C)C)cc3)nc3cnccn23)cc1OC | 687 s
Cn1cc(-c2nc(C(=O)N3CCN(c4ccccc4F)CC3)cs2)c2cccnc21 | 956 s
O=C(C1CCN(c2cncnc2N2CCOCC2)CC1)N1CCN(c2ccccc2)CC1 | 629 s
Cc1nn(-c2ccccc2)c2c1N(CC(=O)NC(C)c1ccccc1)C(=O)CS2 (stereo not given) | 845 s
COc1cccc(Nc2nc(C)c(C(=O)Nc3ccc(F)cc3F)s2)c1 | 955 s
CC1CCN(c2ccc(-c3noc(CN4CCN(c5ccccc5F)CC4)n3)cn2)CC1 | 1090 s
O=C(CN1C(=O)c2ccccc2C1=O)Nc1nnc(-c2ccc3c(c2)OCCO3)o1 | 678 s
CN1CCC(NC(=O)C2CCN(c3nc4ccc(-c5cccs5)nc4s3)CC2)CC1 | 654 s
Cc1cccn2cc(-c3cccc(NS(=O)(=O)c4ccc(Cl)c(Cl)c4)c3)nc12 | 747 s
COc1nn(C)cc1C(=O)Nc1nc(-c2cc(Cl)sc2Cl)cs1 | 1210 s
COc1ccc(OC)c(NS(=O)(=O)c2c(C)sc(C)c2-c2cc(C(F)(F)F)on2)c1 | 1150 s
CCNS(=O)(=O)c1cccnc1Nc1ccc(C)c(Cl)c1 | 1110 s
Cc1cc(C)cc(NC(=O)C2CC(=O)N(c3ccc4oc(C)nc4c3)C2)c1 (stereo not given) | 801 s
CCN1C(=O)C2(C(C#N)=C(N)Oc3n[nH]c(-c4ccccc4)c32)c2ccccc21 (stereo not given) | 733 s
Clc1ccccc1-c1csc(Nc2ccccn2)n1 | 960 s

Further lines, results first:

RP-LC retention time | SMILES
662 s | CC(C)OCCCNC(=O)C1CCN(c2ncnc3c2oc2ccccc23)CC1
665 s | Cc1cc(=O)n(CC(=O)NC(C)C)c(N2CCc3ccccc3C2)n1
709 s | CC(=O)N1CCc2ccc(C(=O)N3CCCCCC3)cc21
695 s | O=C(Cc1csc(NC(=O)NC2CCCCC2)n1)NCc1ccco1
576 s | O=C(c1ccccc1OCC1CCCNC1)N1CCOCC1 (stereo not given)
626 s | CCN(CC)C(=O)c1ccc2oc(CN3CCN(C(=O)NCc4ccco4)CC3)nc2c1
788 s | COC(=O)c1ccsc1NC(=O)CCS(=O)(=O)c1ccccc1
648 s | CCOCC(=O)N(C)CCc1noc(-c2ccc(C(=O)N3CCCC3)cc2)n1
880 s | COc1ccccc1CNC(=O)c1ccc2c(c1)N(C)C(=O)C1CCCCN21 (stereo not given)
928 s | CCn1c(=O)c(N2CCN(C(=O)Nc3cccc(SC)c3)CC2)nc2ccccc21
1100 s | O=C(c1c(F)cccc1F)N1CCc2nc(-c3ccc(Cl)cc3)ncc2C1
844 s | Cc1ccc(CN2CCN(C3CCN(C(=O)Nc4ccccc4)CC3)C2=O)cc1
639 s | COc1ccc(CCC(=O)NCC(=O)Nc2nc3ccccc3[nH]2)cc1
848 s | COc1ccccc1CNC(=O)CN1CCN(Cc2cccc(Cl)c2)C1=O
762 s | O=C(NCc1ccc(Cl)cc1)C(=O)NCC1CCCO1 (stereo not given)
770 s | COc1ccc(Cl)cc1NC(=O)NCCc1nc2cccnc2n1CC(C)C
733 s | Cc1ccc(C(=O)NC2CCN(c3cc(-c4cccs4)[nH]n3)C2)cc1 (stereo not given)
853 s | Cc1c(S(=O)(=O)NCc2ccco2)c(C)n(C)c1-c1nnc(C2CCC2)o1
800 s | COc1ccc2[nH]cc(CCNC(=O)c3ccc(NC(=O)C4=CSCCO4)cc3)c2c1

RP-LC retention time | SMILES
737 s | COC(=O)c1cc2n(n1)CC(C)(C(=O)NC1CCCCC1)N(c1cccc(F)c1)C2=O (stereo not given)
576 s | Cc1ccc(S(=O)(=O)NCC2CCN(C(=O)Oc3ccccc3)CC2)s1
723 s | O=C(Nc1ccc(F)cc1)N1CCC(N2CCN(Cc3ccccc3)C(=O)C2=O)CC1
837 s | Cc1ccc(Sc2nccnc2N2CCCC(C(=O)NCc3ccc(N(C)C)cc3)C2)cc1 (stereo not given)
903 s | CCCN(CC1CCOC1)C(=O)Nc1ccccc1OCC (stereo not given)
572 s | CC(C)Cn1c(=O)c(N2CCN(C(=O)NCc3ccccc3)CC2)nc2ccncc21
1220 s | COc1nc2ccccc2nc1N1CCCC(C(=O)Nc2cccc(Cl)c2)C1 (stereo not given)
602 s | CCCC(NC(=O)c1ccncc1)C(=O)Nc1nc2ccccc2[nH]1 (stereo not given)
835 s | O=C(Nc1ccc(C(=O)N2CCC(C(=O)NC3CCCCC3)CC2)cc1)c1ccc(Cl)cc1
649 s | Cc1cc(C(=O)NCC2CCN(C(=O)NC(C)(C)C)CC2)no1
702 s | O=C(CSc1nc(N2CCCCC2)nc2ccccc12)Nc1ccccc1
569 s | CN(C)CCNC(=O)c1ccc(CS(=O)c2ccc(F)cc2)o1 (stereo not given)
676 s | O=C(Nc1ccc2cn[nH]c2c1)C1(c2ccccc2)CCOCC1
902 s | CCn1cc(-c2nc(C)c(C(=O)NCc3ccc(F)cc3)s2)c2cccnc21
743 s | Clc1ccc(-c2ccc(CNCc3ccco3)o2)c(Cl)c1
572 s | O=C(Cc1cccc2ccccc12)NCC1CCN(Cc2cccs2)CC1
873 s | Cc1nc(-c2ccccc2)cc2nn(CC(=O)NCc3ccccc3)c(=O)n12
826 s | CCCNC(=O)N1CCCC1c1nc(-c2cccc(C)c2)no1 (stereo not given)
763 s | CN(CC1CCOCC1)C(=O)Nc1ccccc1Cl
